Values of other authors, collected in patent US20210230662A1, “Methods for the Treatment of Solid Tumor Cancers Using Illudins and Biomarkers” (Lantern Pharma Inc., priority 2018, published 2021).

What was measured:
tumor cells = settings: at certain doses
normal cells = settings: at certain doses

## CC1=C(CO)C2=C(C)C3(CC3)[C@@](C)(O)C(=O)C2=C1 [Irofulven, HydroxyMethylAcylfulvene]
Tumor cells
  susceptibility of tumor cells to dual damaging activity: highly susceptible
Normal cells
  response of normal cells to the cell-killing drug: marginal response
